From PubChem BioAssay (NCI)
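All cell lines were grown in 96-well plates and treated with compound for 48 hours. GI50 marks 50% less growth. At the TGI there is no net growth.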

How the values were obtained:
Experiment in all cases: inhibition of tumour cell growth, NCI panel, 48 h
OVCAR-8 ovarian = test system: OVCAR-8 ovarian
HT29 colon = test system: HT29 colon
SNB-19 CNS = test system: SNB-19 CNS
UACC-62 melanoma = test system: UACC-62 melanoma
RXF 393 renal = test system: RXF 393 renal
MCF7 breast = test system: MCF7 breast
IGROV1 ovarian = test system: IGROV1 ovarian
NCI-H23 lung = test system: NCI-H23 lung
OVCAR-3 ovarian = test system: OVCAR-3 ovarian
HL-60(TB) leukemia = test system: HL-60(TB) leukemia
ACHN renal = test system: ACHN renal
MDA-MB-231 breast = test system: MDA-MB-231 breast
RPMI-8226 leukemia = test system: RPMI-8226 leukemia
SK-MEL-28 melanoma = test system: SK-MEL-28 melanoma
SN12C renal = test system: SN12C renal
SNB-75 CNS = test system: SNB-75 CNS
SK-MEL-2 melanoma = test system: SK-MEL-2 melanoma
SR leukemia = test system: SR leukemia
OVCAR-5 ovarian = test system: OVCAR-5 ovarian
PC-3 prostate = test system: PC-3 prostate
DU-145 prostate = test system: DU-145 prostate
MOLT-4 leukemia = test system: MOLT-4 leukemia
786-0 renal = test system: 786-0 renal
NCI-H226 lung = test system: NCI-H226 lung
SK-MEL-5 melanoma = test system: SK-MEL-5 melanoma
LOX IMVI melanoma = test system: LOX IMVI melanoma
UO-31 renal = test system: UO-31 renal
NCI-H460 lung = test system: NCI-H460 lung
A498 renal = test system: A498 renal
COLO 205 colon = test system: COLO 205 colon
OVCAR-4 ovarian = test system: OVCAR-4 ovarian
SK-OV-3 ovarian = test system: SK-OV-3 ovarian
HS 578T breast = test system: HS 578T breast
CAKI-1 renal = test system: CAKI-1 renal
HCC-2998 colon = test system: HCC-2998 colon
UACC-257 melanoma = test system: UACC-257 melanoma
CCRF-CEM leukemia = test system: CCRF-CEM leukemia
U251 CNS = test system: U251 CNS
SW-620 colon = test system: SW-620 colon
A549 NSCLC = test system: A549 NSCLC
K-562 leukemia = test system: K-562 leukemia
SF-539 CNS = test system: SF-539 CNS
NCI/ADR-RES ovarian = test system: NCI/ADR-RES ovarian
SF-295 CNS = test system: SF-295 CNS
HCT-116 colon = test system: HCT-116 colon
NCI-H522 lung = test system: NCI-H522 lung
SF-268 CNS = test system: SF-268 CNS
HOP-92 NSCLC = test system: HOP-92 NSCLC
HCT-15 colon = test system: HCT-15 colon
HOP-62 NSCLC = test system: HOP-62 NSCLC
KM12 colon = test system: KM12 colon

`COc1ccc(-c2cn[nH]c2-c2cc(OC)c(OC)c(OC)c2)cc1` was tested, and the GI50 (OVCAR-8 ovarian) was 50 nM, the TGI (OVCAR-8 ovarian) was 38100 nM and the GI50 (HT29 colon) was 25.8 nM. For the same compound, the TGI (HT29 colon) was 336 nM, the GI50 (SNB-19 CNS) was 63.1 nM and the TGI (SNB-19 CNS) was > 74900 nM. The GI50 (UACC-62 melanoma) was 33.9 nM, the TGI (UACC-62 melanoma) was 19500 nM and the GI50 (RXF 393 renal) was 26.9 nM. It also gave a TGI (RXF 393 renal) of 25100 nM, a GI50 (MCF7 breast) of 28.4 nM and a TGI (MCF7 breast) of 16800 nM. For the same compound, the GI50 (IGROV1 ovarian) was 36.3 nM, the TGI (IGROV1 ovarian) was 19900 nM and the GI50 (NCI-H23 lung) was 44 nM. The TGI (NCI-H23 lung) was 30200 nM, the GI50 (OVCAR-3 ovarian) was 22.8 nM and the TGI (OVCAR-3 ovarian) was 69.4 nM. The GI50 (HL-60(TB) leukemia) was 24.9 nM, the TGI (HL-60(TB) leukemia) was 67.1 nM and the GI50 (ACHN renal) was 61.5 nM. The TGI (ACHN renal) was 21300 nM, the GI50 (MDA-MB-231 breast) was 55 nM and the TGI (MDA-MB-231 breast) was 33100 nM. For the same compound, the GI50 (RPMI-8226 leukemia) was 42.9 nM, the TGI (RPMI-8226 leukemia) was 5160 nM and the GI50 (SK-MEL-28 melanoma) was 37.6 nM. For the same compound, the TGI (SK-MEL-28 melanoma) was 32000 nM, the GI50 (SN12C renal) was 193 nM and the TGI (SN12C renal) was 47300 nM. It also gave a GI50 (SNB-75 CNS) of 22 nM, a TGI (SNB-75 CNS) of 33600 nM and a GI50 (SK-MEL-2 melanoma) of 31.7 nM. The TGI (SK-MEL-2 melanoma) was 21500 nM, the GI50 (SR leukemia) was 17.7 nM and the TGI (SR leukemia) was 13900 nM. The GI50 (OVCAR-5 ovarian) was 37.5 nM, the TGI (OVCAR-5 ovarian) was 36900 nM and the GI50 (PC-3 prostate) was 30.9 nM. The TGI (PC-3 prostate) was 59800 nM, the GI50 (DU-145 prostate) was 39.2 nM and the TGI (DU-145 prostate) was 2670 nM. The GI50 (MOLT-4 leukemia) was 45.7 nM, the TGI (MOLT-4 leukemia) was 4210 nM and the GI50 (786-0 renal) was 65.6 nM. The TGI (786-0 renal) was 7760 nM, the GI50 (NCI-H226 lung) was 111 nM and the TGI (NCI-H226 lung) was 20600 nM. It also gave a GI50 (SK-MEL-5 melanoma) of 24.3 nM, a TGI (SK-MEL-5 melanoma) of 226 nM and a GI50 (LOX IMVI melanoma) of 123 nM. It also gave a TGI (LOX IMVI melanoma) of 20700 nM, a GI50 (UO-31 renal) of 57.2 nM and a TGI (UO-31 renal) of 15200 nM. The GI50 (NCI-H460 lung) was 35.1 nM, the TGI (NCI-H460 lung) was 10500 nM and the TGI (A498 renal) was 71.5 nM. It also gave a GI50 (COLO 205 colon) of 19.7 nM, a TGI (COLO 205 colon) of 48.2 nM and a GI50 (OVCAR-4 ovarian) of 511 nM. It also gave a TGI (OVCAR-4 ovarian) of 46900 nM, a GI50 (SK-OV-3 ovarian) of 29.3 nM and a TGI (SK-OV-3 ovarian) of 9120 nM. It also gave a GI50 (HS 578T breast) of 40.8 nM, a TGI (HS 578T breast) of 22500 nM and a GI50 (CAKI-1 renal) of 18.7 nM. It also gave a TGI (CAKI-1 renal) of 18200 nM, a GI50 (HCC-2998 colon) of 43.2 nM and a TGI (HCC-2998 colon) of 15000 nM. The GI50 (UACC-257 melanoma) was 558 nM, the TGI (UACC-257 melanoma) was > 49600 nM and the GI50 (CCRF-CEM leukemia) was 35.3 nM. The TGI (CCRF-CEM leukemia) was > 42600 nM, the GI50 (U251 CNS) was 35.8 nM and the TGI (U251 CNS) was 1700 nM. It also gave a GI50 (SW-620 colon) of 31.6 nM, a TGI (SW-620 colon) of 26700 nM and a GI50 (A549 NSCLC) of 34.6 nM. For the same compound, the TGI (A549 NSCLC) was > 38700 nM, the GI50 (K-562 leukemia) was < 10.9 nM and the TGI (K-562 leukemia) was 26700 nM. It also gave a GI50 (SF-539 CNS) of 21.8 nM, a TGI (SF-539 CNS) of 56.6 nM and a GI50 (NCI/ADR-RES ovarian) of 30.5 nM. It also gave a TGI (NCI/ADR-RES ovarian) of 40200 nM, a TGI (SF-295 CNS) of 37.9 nM and a GI50 (HCT-116 colon) of 34.2 nM. For the same compound, the TGI (HCT-116 colon) was 11400 nM, the GI50 (NCI-H522 lung) was 10.1 nM and the TGI (NCI-H522 lung) was 38.5 nM. It also gave a GI50 (SF-268 CNS) of 79.5 nM, a TGI (SF-268 CNS) of 31500 nM and a GI50 (HOP-92 NSCLC) of 40.7 nM. For the same compound, the TGI (HOP-92 NSCLC) was 9790 nM, the GI50 (HCT-15 colon) was 21.7 nM and the TGI (HCT-15 colon) was 21800 nM. It also gave a GI50 (HOP-62 NSCLC) of 35.2 nM, a TGI (HOP-62 NSCLC) of 33700 nM and a GI50 (KM12 colon) of 25.2 nM. For the same compound, the TGI (KM12 colon) was 12000 nM.
